Measured values: patent US6803186B2, “Compositions and methods for increasing amino acid absorption in mammals” (The IAMS Company, priority 2001, dated 2004)
Square brackets hold non-standard residues; d marks the D form. Peptide text beside a SMILES is read from it. Sar = CNCC(=O)O

Target: T1, canine PepT1 (cPepT1) (Canis lupus familiaris, UniProt Q8WMX5)
T1 construct: endogenous in cells; host or cells: MDCK (Madin-Darby Canine Kidney) cells, whole-cell [3H]-GlySar uptake
T1 sequence (Q8WMX5 1-708): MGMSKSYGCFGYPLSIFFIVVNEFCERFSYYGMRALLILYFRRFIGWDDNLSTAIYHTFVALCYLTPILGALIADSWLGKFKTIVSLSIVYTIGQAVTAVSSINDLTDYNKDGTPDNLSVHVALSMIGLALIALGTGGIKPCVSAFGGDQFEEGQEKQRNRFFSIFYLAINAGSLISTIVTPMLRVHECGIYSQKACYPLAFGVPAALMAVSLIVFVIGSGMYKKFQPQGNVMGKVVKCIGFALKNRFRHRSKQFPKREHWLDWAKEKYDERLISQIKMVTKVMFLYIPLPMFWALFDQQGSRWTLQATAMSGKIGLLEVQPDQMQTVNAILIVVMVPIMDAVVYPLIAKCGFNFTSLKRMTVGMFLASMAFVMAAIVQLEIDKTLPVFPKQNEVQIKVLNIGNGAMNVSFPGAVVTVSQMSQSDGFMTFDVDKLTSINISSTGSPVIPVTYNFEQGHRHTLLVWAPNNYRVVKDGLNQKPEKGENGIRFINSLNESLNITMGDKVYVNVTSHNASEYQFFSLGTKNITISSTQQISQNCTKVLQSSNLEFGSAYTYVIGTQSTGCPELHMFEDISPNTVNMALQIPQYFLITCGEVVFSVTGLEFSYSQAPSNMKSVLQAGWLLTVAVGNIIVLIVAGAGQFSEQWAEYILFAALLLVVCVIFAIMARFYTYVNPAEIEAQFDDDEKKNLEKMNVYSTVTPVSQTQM
Experiment: Characterization of GlySar uptake by MDCK cells (Km, pH gradient, time course)
Format: cell-based
Settings: for GlySar uptake in pH 6.0 buffer relative to pH 7.4 buffer: 100 μM GlySar
Protocol: Potential expression of PepT1 transport activity (H^+-dependent, dipeptide inhibitable, low-affinity dipeptide transport) by confluent MDCK cells was evaluated using whole-cell transport techniques and glycylsarcosine (GlySar) as a model dipeptide substrate. Cells were seeded at 60,000 cells/cm^2 into 24-well trays that had been coated with rat tail collagen or poly-L-lysine and cultured ([…]:5% CO2 at 37° C.) for 3 d in media consisting of Dulbecco's Modified Eagle Medium/10% fetal calf serum/1% antimicrobial antibacterial medium. Absorption (pmols/mg protein) of [^3H]-glycyl-L-sarcosine (GlySar, 6 mCi/mL, Moravek Biochemicals, Brea, Calif.) was determined using the 24-well cluster tray method and representative scintillation counting. Before transport, cells were incubated at 37° C. for 30 min in 25 mM Hepes/Tris (pH 7.5), 140 mM NaCl, 5.4 mM KCl, 1.8 mM CaCl2, 0.8 mM MgSO4, and 5 mM glucose (uptake buffer) to normalize intracellular amino acid and peptide pools. Transport was initiated by the addition of 0.25 mL of uptake buffer that contained 2.88 μm GlySar. After 30 min of uptake at 37° C., transport was terminated by rapid washing of cells with 4×2 mL 4° C. uptake buffer. Cellular protein was precipitated with 10% trichloroacetic acid and the supernatant recovered and counted to determine radioactivity (^3H) content. Cellular protein was then solubilized in 0.2 N NaOH and 0.2% SDS and quantified by the Lowry procedure, using bovine serum albumin as a standard. The amount of H^+-dependent GlySar absorbed was calculated as the difference between uptake in pH 6.0 and pH 7.5 uptake buffers. The amount of competitor substrate-inhibitable GlySar uptake was calculated as the quotient of GlySar uptake in the absence and presence of 10 mM competitor substrate (dipeptide or amino acid) multiplied by 100%.
To preliminarily characterize the kinetic parameters of peptide transport by MDCK cells, the uptake of GlySar in media that contained pH 6.0 and 0.00064, 0.0025, 0.010, 0.04, 0.160, 0.640, 2.56, or 10.2 mM of GlySar was measured (FIG. 6). […] Collectively, these characteristics of GlySar uptake are consistent with functional activity of PepT1 expressed by other species, as opposed to high-affinity, H^+-dependent uptake by PepT2 (μm Km).
Using the maximal uptake-stimulating culture parameters determined in Experiment 3, the effect of an extracellular-to-intracellular pH gradient on GlySar uptake was further evaluated to determine a pH level at which maximal GlySar uptake could be achieved, but which would replicate physiologic conditions (FIG. 10). As expected, the presence of a pH gradient stimulated (P<0.001) H^+-dependent GlySar uptake, in a quadratic (P<0.01) fashion. Uptake at pH 5.5 or 6.0 was about 2.7 times greater than that achieved at pH 7.5. […] Accordingly, the use pH 6.0 buffers for the characterization of H^+-dependent GlySar uptake was incorporated into the standard experimental conditions.
To determine the appropriate time period to measure initial (linear) rates of GlySar uptake, a by-minute time-course experiment was performed. […] GlySar uptake in pH 6.0 buffer at 3.75, 7.5, 15, 30, 60 and 120 min was about 2, 2.1, 2.25, 2.65, 2.79, and 2.62 times more (P<0.001), respectively, than uptake from pH 7.4 buffer. Because uptake was proportional to time of uptake through 1 h, future experiments were conducted using a 30-min time period.
To confirm that H^+-dependent GlySar uptake was saturable, and therefore mediated, the uptake of GlySar from pH 6.0 and 7.4 uptake buffers containing 0.025, 0.1, 0.4, 1.6, 6.4, or 25.6 mM GlySar was evaluated (FIG. 12). Uptake of GlySar was greatest (P<0.001) from the pH 6.0 buffers, at all concentrations.

H+-dependent GlySar uptake at pH 5.5 or 6.0 relative to pH 7.5 (2.88 μM GlySar, LHM 2 days (FIG. 10)): about 2.7 times
GlySar uptake in pH 6.0 buffer relative to pH 7.4 buffer (3.75 min): about 2 times
GlySar uptake in pH 6.0 buffer relative to pH 7.4 buffer (7.5 min): ~2.1 times
GlySar uptake in pH 6.0 buffer relative to pH 7.4 buffer (15 min): ~2.25 times
GlySar uptake in pH 6.0 buffer relative to pH 7.4 buffer (30 min): ~2.65 times
GlySar uptake in pH 6.0 buffer relative to pH 7.4 buffer (60 min): ~2.79 times
GlySar uptake in pH 6.0 buffer relative to pH 7.4 buffer (120 min): ~2.62 times
GlySar uptake at extracellular pH 6.0 relative to pH 7.5 medium (cells grown on poly-L-lysine): 1.7 fold
GlySar uptake at extracellular pH 6.0 relative to pH 7.5 medium (cells plated on collagen): 2.3 fold
SMILES: CN(CC(=O)O)C(=O)CN [GlySar, glycylsarcosine] (H-Gly-[Sar]-OH)
